pIC50: −log10 of the molar value. Read-outs that look alike come from different tables or passages of the source.

Assay [1] concerns the target SHP-2 enzyme (Met1-Leu525) (Homo sapiens (Human), UniProt Q06124). Nature of the assay: SHP2 inhibition enzymatic assay. It counts as biochemical. The following applies: read-out: SHP2wt-IC50. The essentials:
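SHP-2 (Met1-Leu525), 0.5 nM, activated with 500 nM IRS1 bis-phosphopeptide, preincubated 30 min with compounds in HEPES pH 7.2 buffer with 5 mM DTT. 75 μM DiFMUP added for 30 min at room temperature, stopped with bpV; fluorescence read. IC50 from four-parameter logistic fit of % inhibition.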

Assay [2] relates to ERK phosphorylation in KYSE-520 cells. Nature of the assay: Phospho-ERK cellular assay. It counts as cell-based. The following applies: read-out: PERK IC50. Put shortly: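 TR-FRET read-out of ERK1/2 Thr202/Tyr204 phosphorylation was taken after overnight antibody incubation at room temperature. Before that, KYSE-520 cells were treated 2 h at 37 °C with compound dilutions and lysed 30 min. Percent inhibition relative to vehicle and cell-free wells was fitted four-parametrically to give IC50.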

Setting [3] is: 0.5 nM SHP-2 activated by 500 nM IRS1 peptide, 75 μM DiFMUP substrate.
The mark [4] stands for this setting: Homo sapiens, KYSE-520, 2 h, KYSE-520 cells, 2 h at 37° C., phospho-ERK1/2 (Thr202/Tyr204) TR-FRET.

SHP-2 enzyme (Met1-Leu525), sequence (Q06124 1-525): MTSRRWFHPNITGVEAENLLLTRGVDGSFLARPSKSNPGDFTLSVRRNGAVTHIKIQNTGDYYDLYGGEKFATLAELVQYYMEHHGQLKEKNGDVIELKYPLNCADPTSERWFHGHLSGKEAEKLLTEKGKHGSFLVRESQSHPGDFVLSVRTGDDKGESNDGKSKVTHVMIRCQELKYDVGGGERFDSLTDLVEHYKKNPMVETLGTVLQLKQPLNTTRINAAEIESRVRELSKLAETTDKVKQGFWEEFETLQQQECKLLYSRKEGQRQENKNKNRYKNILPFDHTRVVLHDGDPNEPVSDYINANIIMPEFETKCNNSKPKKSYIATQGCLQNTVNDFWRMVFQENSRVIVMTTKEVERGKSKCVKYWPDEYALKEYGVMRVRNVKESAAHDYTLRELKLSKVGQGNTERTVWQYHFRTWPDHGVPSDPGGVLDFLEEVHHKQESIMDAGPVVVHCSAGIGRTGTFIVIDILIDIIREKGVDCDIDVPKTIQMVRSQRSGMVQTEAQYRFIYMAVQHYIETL

One may read the pIC50 as the IC50 on a negative log10 scale, so that one unit is a factor of ten. In the case of `NCC1C2CCN(c3nc4nc(Sc5cccnc5C(F)(F)F)cnc4[nH]3)CC12` (stereo not drawn) [Example 68, (3-(5-((2-(trifluoromethyl)pyridin-3-yl)thio)-1H-imidazo[4,5-b]pyrazin-2-yl)-3-azabicyclo[4.1.0]heptan-7-yl)methanamine], the pIC50 in assay [1] was greater than 6.30; in assay [2] (Homo sapiens, KYSE-520 cells, 2 h at 37° C., phospho-ERK1/2 (Thr202/Tyr204) TR-FRET), less than 5.30.
`NCC1(c2ccccc2)C2CCN(c3cnc4c(-c5cccc(Cl)c5Cl)n[nH]c4n3)CC21` (stereo not drawn) [Example 80, (3-(3-(2,3-dichlorophenyl)-1H-pyrazolo[3,4-b]pyrazin-6-yl)-7-phenyl-3-azabicyclo[4.1.0]heptan-7-yl)methanamine]: the figures for the pIC50 in assay [1] (setting [3]) and in assay [2] (setting [4]) were greater than 6.30 and greater than 6.00, respectively.
For `NC[C@]1(c2ccccc2)[C@@H]2CN(c3cnc4c(-c5cc(F)c6ncccc6c5)n[nH]c4n3)C[C@@H]21` [Example 455, ((1R,5S,6s)-3-(3-(8-fluoroquinolin-6-yl)-1H-pyrazolo[3,4-b]pyrazin-6-yl)-6-phenyl-3-azabicyclo[3.1.0]hexan-6-yl)methanamine] the same measures were greater than 6.30 and greater than 6.00.
For `Cc1cc([C@@]2(CN)[C@@H]3CCN(c4cnc5c(-c6ccc(OC(F)(F)F)c7ncccc67)n[nH]c5n4)C[C@@H]32)no1` [Example 126, ((1S,6R,7S)-7-(5-methylisoxazol-3-yl)-3-(3-(8-(trifluoromethoxy)quinolin-5-yl)-1H-pyrazolo[3,4-b]pyrazin-6-yl)-3-azabicyclo[4.1.0]heptan-7-yl)methanamine] the same measures were greater than 6.30 and greater than 6.00.
For `Cc1cc([C@@]2(CN)[C@@H]3CCN(c4cnc5c(-c6cccn7nccc67)n[nH]c5n4)C[C@@H]32)no1` [Example 129, ((1S,6R,7S)-7-(5-methylisoxazol-3-yl)-3-(3-(pyrazolo[1,5-a]pyridin-4-yl)-1H-pyrazolo[3,4-b]pyrazin-6-yl)-3-azabicyclo[4.1.0]heptan-7-yl)methanamine] the same measures were greater than 6.30 and greater than 6.00.
Turning to `Cc1csc([C@@]2(CN)[C@@H]3CN(c4cnc5c(-c6ccc7n[nH]cc7c6Cl)n[nH]c5n4)C[C@@H]32)n1` [Example 505], the pIC50 in assay [1] (setting [3]) was greater than 6.30; in assay [2] (KYSE-520 cells, 2 h at 37° C., phospho-ERK1/2 (Thr202/Tyr204) TR-FRET), greater than 6.00.
For `Cc1csc([C@@]2(CN)[C@@H]3CN(c4cnc(Sc5ccnc(N)c5Cl)cn4)C[C@@H]32)n1` [Example 498, 4-((5-((1R,5S,6r)-6-(aminomethyl)-6-(4-methylthiazol-2-yl)-3-azabicyclo[3.1.0]hexan-3-yl)pyrazin-2-yl)thio)-3-chloropyridin-2-amine], the negative-log IC50 (pIC50) was greater than 6.30 in assay [1] (setting [3]) and greater than 6.00 in assay [2] (setting [4]).
For `NC[C@]1(c2cccc(F)c2F)[C@@H]2CCN(c3cnc4c(-c5ccnc(N)c5Cl)n[nH]c4n3)C[C@@H]21` [Example 178, 4-(6-((1S,6R,7R)-7-(aminomethyl)-7-(2,3-difluorophenyl)-3-azabicyclo[4.1.0]heptan-3-yl)-1H-pyrazolo[3,4-b]pyrazin-3-yl)-3-chloropyridin-2-amine] the same measures were greater than 6.30 and greater than 6.00.
For `NC[C@]1(c2ccccc2F)[C@@H]2CCN(c3cnc4nc(Oc5ccc(F)cc5)ccc4n3)C[C@@H]21` [Example 409, ((1S,6R,7R)-3-(6-(4-fluorophenoxy)pyrido[2,3-b]pyrazin-2-yl)-7-(2-fluorophenyl)-3-azabicyclo[4.1.0]heptan-7-yl)methanamine], in that order: greater than 6.30 and greater than 6.00.
For the compound `NC[C@]1(c2ccccc2F)[C@@H]2CCN(c3cnc4c(-c5ccc(S(=O)(=O)F)c6ncccc56)n[nH]c4n3)C[C@@H]21` [Example 508, 5-(6-((1S,6R,7R)-7-(aminomethyl)-7-(2-fluorophenyl)-3-azabicyclo[4.1.0]heptan-3-yl)-1H-pyrazolo[3,4-b]pyrazin-3-yl)quinoline-8-sulfonyl fluoride], the pIC50 is greater than 6.30 in assay [1] (setting [3]) and greater than 6.00 in assay [2] (Homo sapiens, KYSE-520, 2 h).
Turning to `Cn1cc2c(Cl)c(-c3n[nH]c4nc(N5C[C@@H]6[C@H](C5)[C@@]6(CN)c5nc(Cl)cs5)n(C)c(=O)c34)ccc2n1` [Example 470, 6-((1R,5S,6r)-6-(aminomethyl)-6-(4-chlorothiazol-2-yl)-3-azabicyclo[3.1.0]hexan-3-yl)-3-(4-chloro-2-methyl-2H-indazol-5-yl)-5-methyl-1,5-dihydro-4H-pyrazolo[3,4-d]pyrimidin-4-one], the pIC50 in assay [1] (setting [3]) was greater than 6.30; in assay [2] (setting [4]) it was greater than 6.00.
For `CN1Cc2c(ccc(-c3n[nH]c4nc(N5CC[C@@H]6[C@H](C5)[C@@]6(CN)c5ccccc5F)cnc34)c2Cl)C1=O` [Example 350, 5-(6-((1S,6R,7R)-7-(aminomethyl)-7-(2-fluorophenyl)-3-azabicyclo[4.1.0]heptan-3-yl)-1H-pyrazolo[3,4-b]pyrazin-3-yl)-4-chloro-2-methylisoindolin-1-one], in that order: greater than 6.30 and greater than 6.00.
With `Cc1cc(C2(CN)C3CCN(c4cnc5c(-c6cccc(Cl)c6Cl)n[nH]c5n4)CC32)on1` (stereo not drawn) [Example 6, (3-(3-(2,3-dichlorophenyl)-1H-pyrazolo[3,4-b]pyrazin-6-yl)-7-(3-methylisoxazol-5-yl)-3-azabicyclo[4.1.0]heptan-7-yl)methanamine], the values for the pIC50 in assay [1] (setting [3]) and in assay [2] (setting [4]) were greater than 6.30 and greater than 6.00, respectively.
For `Cc1cc([C@@]2(CN)[C@@H]3CCN(c4cnc5c(-c6ccnc7ncccc67)n[nH]c5n4)C[C@@H]32)no1` [Example 38, ((1S,6R,7S)-3-(3-(1,8-naphthyridin-4-yl)-1H-pyrazolo[3,4-b]pyrazin-6-yl)-7-(5-methylisoxazol-3-yl)-3-azabicyclo[4.1.0]heptan-7-yl)methanamine] the same measures were greater than 6.30 and greater than 6.00.
Consider `NC[C@]1(c2ccccc2F)[C@@H]2CCN(c3cnc4c(-c5ccn6ncnc6c5)n[nH]c4n3)C[C@@H]21` [Example 333, ((1S,6R,7R)-3-(3-([1,2,4]triazolo[1,5-a]pyridin-7-yl)-1H-pyrazolo[3,4-b]pyrazin-6-yl)-7-(2-fluorophenyl)-3-azabicyclo[4.1.0]heptan-7-yl)methanamine], for which the figures for the pIC50 in assay [1] (setting [3]) and in assay [2] (setting [4]) were greater than 6.30 and greater than 6.00, respectively.
As to `NC[C@]1(c2ccccc2F)[C@@H]2CCN(c3cnc4c(-c5cc(C(N)=O)ccc5Cl)n[nH]c4n3)C[C@@H]21` [Example 281, 3-(6-((1S,6R,7R)-7-(aminomethyl)-7-(2-fluorophenyl)-3-azabicyclo[4.1.0]heptan-3-yl)-1H-pyrazolo[3,4-b]pyrazin-3-yl)-4-chlorobenzamide], the pIC50 in assay [1] (setting [3]) was greater than 6.30; in assay [2] (setting [4]), less than 5.30.
For `NC[C@]1(c2ccccc2F)[C@@H]2CCN(c3cc(=O)n4cc(Sc5ccnc(N)c5Cl)ccc4n3)C[C@@H]21` [Example 410, 7-((2-amino-3-chloropyridin-4-yl)thio)-2-((1S,6R,7R)-7-(aminomethyl)-7-(2-fluorophenyl)-3-azabicyclo[4.1.0]heptan-3-yl)-4H-pyrido[1,2-a]pyrimidin-4-one] the same measures were 5.52 to 6.30 and less than 5.30.
For `NCC1(c2ccccc2)C2CCN(c3cnc(Sc4cccnc4C(F)(F)F)c(N)n3)CC21` (stereo not drawn) [Example 71, 6-(7-(aminomethyl)-7-phenyl-3-azabicyclo[4.1.0]heptan-3-yl)-3-((2-(trifluoromethyl)pyridin-3-yl)thio)pyrazin-2-amine], in that order: greater than 6.30 and less than 5.30.

The values above are taken from patent US20240109900A1, “AZABICYCLIC SHP2 INHIBITORS” (IRBM S.P.A., priority 2021, published 2024).
